In US20220153732A1, “PROTEIN SECRETION INHIBITORS” (KEZAR LIFE SCIENCES, priority 2019, published 2022):
Where two headings read alike, the source gives them in different places.

Assays:
Format in all cases: cell-based
[1] = tested on: HER3-ss+4aa/Gaussia Luciferase; assay: Dox-Induced Her3-ss-Gluc Assay
In short: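 Compounds, diluted in DMSO/media containing doxycycline, were incubated at 37° C., 5% CO2 with cells seeded one day earlier. The cells stably express HER3-ss+4aa/Gaussia luciferase under T-REx control. Where no stereochemistry is shown, data refer to the mixture of stereoisomers.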

[2] = tested on: human multiple myeloma cell line NCI-H929; assay: H929 Cell Viability Assay; conditions: 48 hr, NCI-H929 cells, Celltiter-Glo, read-out: 48 hr H929 Viability Celltiter-Glo: Mean EC50
Description: Plates were incubated at 37° C., 5% CO2 for 48 hours. After 48 hours, Celltiter-Glo® (Promega) was added to each well and luciferase signal was quantified using Tecan Infinite M1000 Pro for cell viability determination.
For chemical structures that include one or more stereoisomers, but are illustrated without indicating stereochemistry, the assay data refers to a mixture of stereoisomers.

[3] = tested on: PD1-ss+10aa/Gaussia Luciferase; assay: Dox-Induced PD1-ss-Gluc Assay
In short: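 Compounds, diluted in DMSO/media with doxycycline, were added to cells plated a day earlier and kept at 37° C under 5% CO2. The cells stably express a Gaussia luciferase construct fused to PD1-ss+10aa, induced via the T-REx system. Unassigned stereochemistry means mixture data.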

[4] = tested on: IL-2-FL/Gaussia Luciferase; assay: Dox Induced IL2-FL-Gluc Assay
In short: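 Compounds were added together with doxycycline in DMSO/media and incubated at 37° C., 5% CO2. The cells were a stably selected line carrying IL-2-FL/Gaussia luciferase under T-REx inducible control. Structures drawn without stereochemistry were tested as stereoisomer mixtures.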

[5] = tested on: TNFα-FL/Gaussia Luciferase; assay: Dox Induced TNFα-FL-Gluc Assay
In short: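 Compounds were added in doxycycline-containing DMSO/media to cells plated the previous day and incubated at 37° C under 5% CO2. These cells stably express a TNFα-FL/Gaussia luciferase cDNA whose expression is under T-REx (Dox-inducible) control, selected with Hygromycin and Blasticidin.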

[6] = tested on: human multiple myeloma cell line U266B1; assay: U266 Cell Viability Assay; conditions: U-266, 48 hr, U266B1 cells, Celltiter-Glo, read-out: 48 hr U266 Viability Celltiter-Glo: Mean EC50
In short: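 Viability measured by CellTiter-Glo luciferase signal after 48 h compound exposure (37 °C, 5% CO2) of U266B1 cells in 384-well format. Where stereochemistry is not shown, data refer to the stereoisomer mixture.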

[7] = 24 hr, doxycycline-induced, 293FRT/TO cells; read-out: 24 hr Dox Inducible Her3(ss + 4)Gluc 293FRT/TO: Mean IC50
[8] = 24 hr, doxycycline-induced, 293FRT/TO cells; read-out: 24 hr Dox Inducible PD1ssGluc 293FRT/TO: Mean IC50
[9] = 24 hr, doxycycline-induced, 293FRT/TO cells; read-out: 24 hr Dox Inducible IL2FLGIuc 293FRT/TO: Mean IC50
[10] = 24 hr, doxycycline-induced, 293FRT/TO cells; read-out: 24 hr Dox Inducible TNFaFLGluc 293FRT/TO: Mean IC50

O=C(Nc1nc([C@H]2CC(F)(F)CN2c2ccccc2)cs1)c1cccn1Cc1ccncc1 [Compound A339]
IC50 [1, 7]: 0.029 µM
EC50 [2]: 1.31 µM
IC50 [3, 8]: 0.018 µM
IC50 [4, 9]: 0.013 µM
IC50 [5, 10]: 0.226 µM
EC50 [6]: > 25 µM

CC(C)OC(C)(C)c1csc(NC(=O)c2ccccc2N2CCOCC2)n1 [Compound A340]
IC50 [1, 7]: > 25 µM
EC50 [2]: > 25 µM
IC50 [3, 8]: > 25 µM
IC50 [4, 9]: > 25 µM
IC50 [5, 10]: > 25 µM
EC50 [6]: > 25 µM

N#Cc1ccc(/C=C/c2csc(NC(=O)c3cccn3Cc3ccncc3)n2)nc1 [Compound A341]
IC50 [1, 7]: > 25 µM
EC50 [2]: > 25 µM
IC50 [3, 8]: 0.047 µM
IC50 [4, 9]: > 25 µM
IC50 [5, 10]: > 25 µM
EC50 [6]: > 25 µM

O=C(Nc1nc(/C=C/c2ccc(F)cn2)cs1)c1cccn1Cc1ccncc1 [Compound A342]
IC50 [1, 7]: 0.952 µM
EC50 [2]: 23.7 µM
IC50 [3, 8]: 0.068 µM
IC50 [4, 9]: 1.4 µM
IC50 [5, 10]: > 25 µM
EC50 [6]: > 25 µM

O=C(Nc1nc(/C=C/c2ccc(C(F)(F)F)cn2)cs1)c1cccn1Cc1ccncc1 [Compound A343]
IC50 [1, 7]: 0.492 µM
EC50 [2]: 7.18 µM
IC50 [3, 8]: 0.017 µM
IC50 [4, 9]: 1.15 µM
IC50 [5, 10]: 3.62 µM
EC50 [6]: 15.9 µM

O=C(Nc1nc(C2[C@@H](O)CCN2c2ccccc2)cs1)c1cccn1Cc1ccncc1 (stereo partly drawn) [Compound A344]
IC50 [1, 7]: 2.03 µM
EC50 [2]: > 25 µM
IC50 [3, 8]: 0.971 µM
IC50 [4, 9]: 1.35 µM
IC50 [5, 10]: 8.86 µM
EC50 [6]: > 25 µM

CO[C@@H]1CCN(c2ccccc2)C1c1csc(NC(=O)c2cccn2Cc2ccncc2)n1 (stereo partly drawn) [Compound A345]
IC50 [1, 7]: 0.022 µM
EC50 [2]: 0.72 µM
IC50 [3, 8]: 0.011 µM
IC50 [4, 9]: 0.023 µM
IC50 [5, 10]: 0.1 µM
EC50 [6]: > 25 µM

CC(C)O[C@@H]1CC(c2csc(NC(=O)c3cccn3Cc3ccncc3)n2)N(c2ccccc2)C1 (stereo partly drawn) [Compound A346]
IC50 [1, 7]: 0.022 µM
EC50 [2]: 0.972 µM
IC50 [3, 8]: 0.017 µM
IC50 [4, 9]: 0.02 µM
IC50 [5, 10]: 0.092 µM
EC50 [6]: > 25 µM

Cc1cccnc1/C=C/c1csc(NC(=O)c2cccn2Cc2ccncc2)n1 [Compound A347]
IC50 [1, 7]: 6.01 µM
EC50 [2]: 23.8 µM
IC50 [3, 8]: 0.042 µM
IC50 [4, 9]: 9.58 µM
IC50 [5, 10]: 13.1 µM
EC50 [6]: 20.3 µM

CC(C)OC(C)(C)c1csc(NC(=O)c2sccc2-c2ccncc2)n1 [Compound A348]
IC50 [1, 7]: > 25 µM
EC50 [2]: 17 µM
IC50 [3, 8]: > 25 µM
IC50 [4, 9]: > 25 µM
IC50 [5, 10]: > 25 µM
EC50 [6]: 18.3 µM

O=C(Nc1nc([C@H]2C[C@@H](c3ccccn3)C2)cs1)c1cccn1Cc1ccncc1 [Compound A349]
IC50 [1, 7]: 1.26 µM
EC50 [2]: 12.5 µM
IC50 [3, 8]: 0.364 µM
IC50 [4, 9]: 1.7 µM
IC50 [5, 10]: 6.62 µM
EC50 [6]: > 25 µM

O=C(Nc1nc([C@H]2C[C@H](c3ccccn3)C2)cs1)c1cccn1Cc1ccncc1 [Compound A350]
IC50 [1, 7]: 2.39 µM
EC50 [2]: > 25 µM
IC50 [3, 8]: 0.707 µM
IC50 [4, 9]: > 25 µM
IC50 [5, 10]: 14.9 µM
EC50 [6]: > 25 µM

O=C(Nc1nc([C@H]2[C@H](O)CCN2c2ccccc2)cs1)c1cccn1Cc1ccncc1 [Compound A351]
IC50 [1, 7]: 0.45 µM
EC50 [2]: 7.5 µM
IC50 [3, 8]: 0.167 µM
IC50 [4, 9]: 0.259 µM
IC50 [5, 10]: 0.954 µM
EC50 [6]: > 25 µM

CC(C)(C)[Si](O[C@@H]1CCN(c2ccccc2)[C@@H]1c1csc(NC(=O)c2cccn2Cc2ccncc2)n1)(c1ccccc1)c1ccccc1 [Compound A352]
IC50 ([1]; read-out: 24 hr Dox Inducible Her3(ss + 4)Gluc 293FRT/TO: Mean IC50; 24 hr, doxycycline-induced, 293FRT/TO cells): 0.019 µM
EC50 [2]: 0.452 µM
IC50 ([3]; read-out: 24 hr Dox Inducible PD1ssGluc 293FRT/TO: Mean IC50; 24 hr, doxycycline-induced, 293FRT/TO cells): 0.008 µM
IC50 ([4]; read-out: 24 hr Dox Inducible IL2FLGIuc 293FRT/TO: Mean IC50; 24 hr, doxycycline-induced, 293FRT/TO cells): 0.016 µM
IC50 ([5]; read-out: 24 hr Dox Inducible TNFaFLGluc 293FRT/TO: Mean IC50; 24 hr, doxycycline-induced, 293FRT/TO cells): 0.062 µM
EC50 [6]: > 25 µM
